According to patent US12440451B2, “Compositions and methods using an epigenetic inhibitor” (DANA-FARBER CANCER INSTITUTE, INC., priority 2017, dated 2025):

Assays:
H3K27-ac in CD8+ T cells = assay: H3K27-ac ChIP-sequencing of activated CD8+ T cells; assay type: cell-based, mouse; details: days 5 and 7 post-activation
Procedure: ChIP-sequencing was then performed to survey the genomic landscape of H3K27 acetylation in the absence or the presence of HDAC3 activity on days 5 and 7 post-activation using the same in vitro activation co-culture system as in as described in FIG. 1 and Example 1 above.
FIGS. 9C-9H show H3K27-ac ChIP-sequence tracks, from top to bottom: naïve CD8^+ T cells (day 0): control-treated cells, day 5 post-activation: RGFP966-treated cells, day 5 post-activation: control-treated cells, day 7 post-activation: RGFP966-treated cells, day 7 post-activation. Arrows under gene names indicate direction of transcription. Tracks were visualized with the IGV genome browser (Broad Institute, MA).

human CD8+ T cells = assay: activation of human CD8+ T cells with anti-CD3 and anti-CD28, flow cytometry; assay type: cell-based; details: 10 μM; 7 days
Procedure: Further investigation was conducted to discover whether the augmented cytotoxic effector phenotype observed in mouse CD8^+ T cells post-activation with HDAC3 inhibition was also true in human CD8^+ T cells. Total CD8^+ T cells were negatively isolated from the peripheral blood of healthy human donors, and activated in vitro using plate-bound anti-CD3 and soluble anti-CD28 antibodies in the presence or absence of 0 μM (vehicle control) or 10 μM RGFP966. Following 7 days of in vitro activation, without additional IL-2 supplementation, CD8^+ T cells were analyzed by flow cytometry for expression of markers associated with T cell activation, effector cytokines, and cytotoxicity. The results are summarized in the graphs of FIG. 13A.

OT-I+ CD8+ T cells = assay: proliferation of activated T cells (total number of live cells by flow cytometry); assay type: cell-based, mouse; details: FIG. 3
Procedure: T cells treated with RGFP966 also show increased proliferation relative to untreated T cells. FIG. 3 is a bar chart the total number of live cells detected in flow cytometry for activated OT-I^+ CD8^+ T cells that have been treated with 10 μM, 1 μM RGFP966, and no RGFP966 (vehicle control).

other HDACs = details: reported; cited from earlier work

With Nc1cc(F)ccc1NC(=O)/C=C/c1cnn(C/C=C/c2ccccc2)c1 [RGFP966] the “H3K27-ac at GzmB, Fasl, ID2, PRDM1 and TBX21” value (H3K27-ac in CD8+ T cells) was “increased H3K27-ac”, the “H3K27-ac at RUNX3” value (H3K27-ac in CD8+ T cells) was “increased H3K27-ac” and the “H3K27ac at loci of effector cytokines, EOMES and BCL6” value (H3K27-ac in CD8+ T cells; data not shown) was “no significant changes”. The “expression of CD25” value (human CD8+ T cells) was “upregulation”, the “expression of CD44” value (human CD8+ T cells) was “upregulation” and the “expression of granzyme B” value (human CD8+ T cells) was “upregulation”. For the same compound, the “T cell proliferation (total number of live cells)” value (OT-I+ CD8+ T cells; 1 μM) was “increasing T cell proliferation over vehicle control”, the “T cell proliferation (total number of live cells)” value (OT-I+ CD8+ T cells; 10 μM) was “increasing T cell proliferation as compared to T cells treated with 1 μM RGFP966” and the “concentration range at which other HDACs are not inhibited” value (other HDACs) was under 15 µM.
